Consider 15 molecules from patent US5422341A, “Motilin-like polypeptides with gastrointestinal motor stimulating activity” (Ohmeda Pharmaceutical Products Division Inc., priority 1993, dated 1995).

Experiment [1] has as its target segments of rabbit duodenum (Oryctolagus cuniculus, UniProt G1T803). Description: Rabbit duodenal smooth muscle strip tissue bath assay. The experiment is classed as cell-based. The conditions noted are these: negative logarithm of the dose giving 50% of the maximal response to motilin; isotonic contraction of rabbit duodenum segments. As for the experimental part: The contractile response of segments of rabbit duodenum was determined isotonically in the tissue bath according to the procedure of Depoortere et at., J. Gastrointestinal Motility, 1, 150-159 (1989). The experimental protocol consisted of an equilibration period of 1 hour; a challenge with 10^-4 M acetylcholine followed by a wash-out period; a cumulative dose-response curve of a compound with, at the end, the addition of 10^-7 M motilin; and finally 10^-4 M acetylcholine. If the final response to 10^-4 M acetylcholine differed by more than 5% from the initial response, the results were discarded. The compounds were tested in the concentration range 10^-11 to 10^-4 M. The point corresponding to 50% of the maximal response to motilin (Emax) was determined by fitting the equation E=Emax (1+EC50 /[L]) through the data points. […] The dose giving 50% of the response is expressed using its negative logarithm (pEC50).

The target of experiment [2] is T1, motilin receptor (Oryctolagus cuniculus, UniProt G1T803).
T1 construct: from tissue; host or cells: rabbit antral smooth muscle membranes
Description: Determination of motilin receptor binding affinity (displacement of [125I-Tyr7, Nle13]motilin(porcine)). More on the design: species or system rabbit. The protocol:
The motilin receptor binding affinity of the peptides of this invention was determined by using the general procedure of Bormans, Peelers and Vantrappen, Regul. […] Fitting was performed using the iterative least-squares procedure of the SAS-software package (SAS Institute, Inc., Cary, N.C., USA).
Background: Displacement assays read how much labelled ligand stays bound in the presence of the test substance.

The mark [3] stands for this setting: negative logarithm of the concentration displacing 50% of [125I-Tyr7, Nle13]motilin(porcine) from rabbit antral smooth muscle membranes, read-out: pIC50 (converted).

Structures can show the parent of a compound that is named as a salt. Where two headings read alike, the source gives them in different places. Square brackets hold non-standard residues; d marks the D form. Peptide text beside a SMILES is read from it. * marks the point of attachment. X5 = C=CC[N+](C)(C)[C@@H](Cc1ccccc1)C(=O)*; X1 = C[N+](C)(C)[C@@H](Cc1ccccc1)C(=O)*; NMeF = CN[C@@H](Cc1ccccc1)C(=O)O; Cha = N[C@@H](CC1CCCCC1)C(=O)O; dCha = N[C@H](CC1CCCCC1)C(=O)O

segments of rabbit duodenum, sequence (G1T803 1-400): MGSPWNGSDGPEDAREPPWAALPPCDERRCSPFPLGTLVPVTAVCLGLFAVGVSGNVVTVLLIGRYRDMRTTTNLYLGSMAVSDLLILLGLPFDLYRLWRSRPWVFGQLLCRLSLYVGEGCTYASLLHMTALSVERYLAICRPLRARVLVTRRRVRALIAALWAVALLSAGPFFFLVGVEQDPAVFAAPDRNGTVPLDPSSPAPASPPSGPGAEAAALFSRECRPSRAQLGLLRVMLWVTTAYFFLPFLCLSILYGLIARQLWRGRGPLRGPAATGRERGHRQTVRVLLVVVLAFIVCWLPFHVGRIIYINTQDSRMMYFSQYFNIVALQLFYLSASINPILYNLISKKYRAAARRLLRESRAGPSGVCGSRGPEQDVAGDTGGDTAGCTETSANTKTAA
T1 sequence (G1T803 1-400): as above

In the case of `CC[C@H](C)[C@H](NC(=O)[C@H](C)NC(=O)[C@@H](NC(=O)[C@H](Cc1ccccc1)[N+](C)(C)C)C(C)C)C(=O)N[C@@H](Cc1ccccc1)C(=O)N[C@H](C(=O)N[C@@H](Cc1ccc(O)cc1)C(=O)NCC(=O)N[C@@H](CCC(=O)O)C(=O)N[C@@H](CC(C)C)C(=O)N[C@@H](CCC(N)=O)C(=O)N[C@H](CCCNC(=N)N)C(=O)N[C@@H](CC(C)C)C(=O)N[C@H](CCC(N)=O)C(N)=O)[C@@H](C)O` (X1-VAIFTYGELQ[dR]L[dQ]-NH2), in experiment [1], the negative-log EC50 (pEC50) – broadly, the negative decadic logarithm of the EC50, by convention in mol/L – came out at 7.20. In addition, the IC50 in experiment [2] (setting [3]) was 1.41 nM.

`CC[C@H](C)[C@H](NC(=O)[C@@H]1CCCN1C(=O)[C@@H](NC(=O)[C@H](Cc1ccccc1)NC)C(C)C)C(=O)N[C@@H](Cc1ccccc1)C(=O)N[C@H](C(=O)N[C@@H](Cc1ccc(O)cc1)C(=O)NCC(=O)N[C@@H](CCC(=O)O)C(=O)N[C@@H](CC(C)C)C(=O)N[C@@H](CCC(N)=O)C(=O)N[C@H](CCCNC(=N)N)C(=O)N[C@@H](CC(C)C)C(=O)N[C@@H](CCC(N)=O)C(N)=O)[C@@H](C)O` (H-[NMeF]VPIFTYGELQ[dR]LQ-NH2) displayed a negative-log EC50 (pEC50) in experiment [1] of 7.95. For the same molecule, in experiment [2] (setting [3]), the IC50 was 1.02 nM.

`C=CC[N+](C)(C)[C@@H](Cc1ccccc1)C(=O)N[C@H](C(=O)N1CCC[C@H]1C(=O)N[C@H](C(=O)N[C@@H](Cc1ccccc1)C(=O)N[C@H](C(=O)N[C@@H](Cc1ccc(O)cc1)C(=O)NCC(=O)N[C@@H](CCC(=O)O)C(=O)N[C@@H](CC(C)C)C(=O)N[C@@H](CCC(N)=O)C(=O)N[C@@H](CCCNC(=N)N)C(=O)N[C@@H](CC(C)C)C(=O)N[C@@H](CCC(N)=O)C(N)=O)[C@@H](C)O)[C@@H](C)CC)C(C)C` (X5-VPIFTYGELQRLQ-NH2): the pEC50 in experiment [1] is 7.47. Further, the IC50 in experiment [2] (setting [3]) was 1.74 nM.

As to `CC[C@H](C)[C@H](NC(=O)[C@H](C)NC(=O)[C@@H](NC(=O)[C@H](N)CC1CCCCC1)C(C)C)C(=O)N[C@@H](Cc1ccccc1)C(=O)N[C@H](C(=O)N[C@@H](Cc1ccc(O)cc1)C(=O)NCC(=O)N[C@@H](CCC(=O)O)C(=O)N[C@@H](CC(C)C)C(=O)N[C@@H](C)C(=O)N[C@H](CCCNC(=N)N)C(=O)N[C@@H](CC(C)C)C(=O)N[C@H](CCCCN)C(N)=O)[C@@H](C)O` (H-[dCha]VAIFTYGELA[dR]L[dK]-NH2), the pEC50 in experiment [1] is listed as 7.25. The IC50 in experiment [2] (setting [3]) is 0.933 nM.

In experiment [1], `CC[C@H](C)[C@H](NC(=O)[C@@H]1CCCN1C(=O)[C@@H](NC(=O)[C@@H](N)Cc1ccccc1)C(C)C)C(=O)N[C@@H](Cc1ccccc1)C(=O)N[C@H](C(=O)N[C@@H](Cc1ccccc1)C(=O)NCC(=O)N[C@@H](CCC(=O)O)C(=O)N[C@@H](CC(C)C)C(=O)N[C@@H](CCC(N)=O)C(=O)N[C@H](CCCNC(=N)N)C(=O)N[C@@H](CC(C)C)C(=O)N[C@@H](CCC(N)=O)C(=O)O)[C@@H](C)O` [[Phe^7, D-Arg^12, Leu^13]pMOT(1-14)] (H-FVPIFTFGELQ[dR]LQ-OH) showed a negative-log EC50 (pEC50) of 6.92. The IC50 in experiment [2] (setting [3]) is 8.51 nM.

In experiment [1], `CC[C@H](C)[C@H](NC(=O)[C@H](C)NC(=O)[C@@H](NC(=O)[C@H](Cc1ccccc1)[N+](C)(C)C)C(C)C)C(=O)N[C@@H](Cc1ccccc1)C(=O)N[C@H](C(=O)N[C@@H](Cc1ccc(O)cc1)C(=O)NCC(=O)N[C@@H](CCC(=O)O)C(=O)N[C@@H](CC(C)C)C(=O)N[C@@H](C)C(=O)N[C@H](CCCNC(=N)N)C(=O)N[C@@H](CC(C)C)C(=O)N[C@@H](CCC(N)=O)C(N)=O)[C@@H](C)O` (X1-VAIFTYGELA[dR]LQ-NH2) gave a pEC50 of 7.31. Moreover, the IC50 in experiment [2] (setting [3]) is 1.95 nM.

`CC[C@H](C)[C@H](NC(=O)[C@@H]1CCCN1C(=O)[C@@H](NC(=O)[C@@H](N)Cc1ccccc1)C(C)C)C(=O)N[C@@H](Cc1ccccc1)C(=O)N[C@H](C(=O)N[C@@H](Cc1ccc(O)cc1)C(=O)NCC(=O)N[C@@H](CCC(=O)O)C(=O)N[C@@H](CC(C)C)C(=O)N[C@@H](CCC(N)=O)C(=O)N[C@H](C)C(=O)N[C@@H](CC(C)C)C(=O)N[C@@H](CCC(N)=O)C(=O)O)[C@@H](C)O` [[D-Ala^12, Leu^13]pMOT(1-14)] (H-FVPIFTYGELQ[dA]LQ-OH) showed a negative logarithm of the EC50 (pEC50) in experiment [1] of 7.29. In addition, the IC50 in experiment [2] (setting [3]) was 8.91 nM.

`CC[C@H](C)[C@H](NC(=O)[C@@H]1CCCN1C(=O)[C@@H](NC(=O)[C@@H](N)Cc1ccccc1)C(C)C)C(=O)N[C@@H](Cc1ccccc1)C(=O)N[C@H](C(=O)N[C@@H](Cc1ccc(O)cc1)C(=O)NCC(=O)N[C@@H](CCC(=O)O)C(=O)N[C@@H](CC(C)C)C(=O)N[C@@H](CCC(N)=O)C(=O)N[C@H](CCCNC(=N)N)C(=O)N[C@@H](CC(C)C)C(=O)N[C@@H](CCCCN)C(N)=O)[C@@H](C)O` (H-FVPIFTYGELQ[dR]LK-NH2) displayed a negative-log EC50 (pEC50) in experiment [1] of 7.13. Also, the IC50 in experiment [2] (setting [3]) was 1.29 nM.

`CC[C@H](C)[C@H](NC(=O)[C@H](C)NC(=O)[C@@H](NC(=O)[C@H](Cc1ccccc1)[N+](C)(C)C)C(C)C)C(=O)N[C@@H](Cc1ccccc1)C(=O)N[C@H](C(=O)N[C@@H](Cc1ccc(O)cc1)C(=O)NCC(=O)N[C@@H](CCC(=O)O)C(=O)N[C@@H](CC(C)C)C(=O)N[C@@H](C)C(=O)N[C@H](CCCNC(=N)N)C(=O)N[C@@H](CC(C)C)C(=O)N[C@H](CCC(N)=O)C(N)=O)[C@@H](C)O` (X1-VAIFTYGELA[dR]L[dQ]-NH2) came in with a pEC50 in experiment [1] of 7.22. Further, the IC50 in experiment [2] (setting [3]) was 1.45 nM.

Molecule `CC[C@H](C)[C@H](NC(=O)[C@@H]1CCCN1C(=O)[C@@H](NC(=O)[C@@H](N)Cc1ccccc1)C(C)C)C(=O)N[C@@H](Cc1ccccc1)C(=O)N[C@H](C(=O)N[C@@H](Cc1ccc(O)cc1)C(=O)NCC(=O)N[C@@H](CCC(=O)O)C(=O)N[C@@H](CC(C)C)C(=O)N[C@@H](C)C(=O)N[C@H](CCCNC(=N)N)C(=O)N[C@@H](CC(C)C)C(=O)N[C@@H](CCC(N)=O)C(=O)O)[C@@H](C)O` [[Ala^11, D-Arg^12, Leu^13]pMOT(1-14)] (H-FVPIFTYGELA[dR]LQ-OH) came in with a negative-log EC50 (pEC50) in experiment [1] of 7.63. For the same molecule, the IC50 in experiment [2] (setting [3]) was 1.66 nM.

In experiment [1], `CC[C@H](C)[C@H](NC(=O)[C@H](C)NC(=O)[C@@H](NC(=O)[C@H](Cc1ccccc1)NC)C(C)C)C(=O)N[C@@H](Cc1ccccc1)C(=O)N[C@H](C(=O)N[C@@H](Cc1ccc(O)cc1)C(=O)NCC(=O)N[C@@H](CCC(=O)O)C(=O)N[C@@H](CC(C)C)C(=O)N[C@@H](CCC(N)=O)C(=O)N[C@H](CCCNC(=N)N)C(=O)N[C@@H](CC(C)C)C(=O)N[C@H](CCC(N)=O)C(N)=O)[C@@H](C)O` (H-[NMeF]VAIFTYGELQ[dR]L[dQ]-NH2) returned a pEC50 of 8.07. Moreover, the IC50 in experiment [2] (pIC50, negative logarithm of the concentration displacing 50% of [125I-Tyr7, Nle13]motilin(porcine) from rabbit antral smooth muscle membranes) is 0.776 nM.

`CC[C@H](C)[C@H](NC(=O)[C@H](C)NC(=O)[C@@H](NC(=O)[C@@H](N)Cc1ccccc1)C(C)C)C(=O)N[C@@H](Cc1ccccc1)C(=O)N[C@H](C(=O)N[C@@H](Cc1ccc(O)cc1)C(=O)NCC(=O)N[C@@H](CCC(=O)O)C(=O)N[C@@H](CC(C)C)C(=O)N[C@@H](CCC(N)=O)C(=O)N[C@H](CCCNC(=N)N)C(=O)N[C@@H](CC(C)C)C(=O)N[C@@H](CCC(N)=O)C(N)=O)[C@@H](C)O` (H-FVAIFTYGELQ[dR]LQ-NH2) registered a pEC50 in experiment [1] of 7.76. Moreover, the IC50 in experiment [2] (setting [3]) was 1.95 nM.

As for `CC[C@H](C)[C@H](NC(=O)[C@@H]1CCCN1C(=O)[C@@H](NC(=O)[C@H](Cc1ccccc1)[N+](C)(C)C)C(C)C)C(=O)N[C@@H](Cc1ccccc1)C(=O)N[C@H](C(=O)N[C@@H](Cc1ccc(O)cc1)C(=O)NCC(=O)N[C@@H](CCC(=O)O)C(=O)N[C@@H](CC(C)C)C(=O)N[C@@H](CCC(N)=O)C(=O)N[C@@H](CCCNC(=N)N)C(=O)N[C@@H](CC(C)C)C(=O)N[C@@H](CCC(N)=O)C(=O)O)[C@@H](C)O` [[Me3 N^+ Phe^1, Leu^13]pMOT(1-14), [1-N,N,N-Trimethylphenylalanine, 13-leucine]motilin-(1-14)-peptide (Porcine) Bis-trifluoroacetate Salt] (X1-VPIFTYGELQRLQ-OH), the pEC50 in experiment [1] amounted to 7.69. Moreover, the IC50 in experiment [2] (setting [3]) is 3.55 nM.

In turn, `CC[C@H](C)[C@H](NC(=O)[C@@H]1CCCN1C(=O)[C@@H](NC(=O)[C@@H](N)Cc1ccccc1)C(C)C)C(=O)N[C@@H](Cc1ccccc1)C(=O)N[C@H](C(=O)N[C@@H](Cc1ccc(O)cc1)C(=O)NCC(=O)N[C@@H](CCC(=O)O)C(=O)N[C@@H](CC(C)C)C(=O)N[C@@H](CCC(N)=O)C(=O)N[C@H](CCCNC(=N)N)C(=O)N[C@@H](CC(C)C)C(=O)N[C@@H](CCC(N)=O)C(N)=O)[C@@H](C)O` [[D-Arg^13, Leu^13]pMOT(1-14) amide] (H-FVPIFTYGELQ[dR]LQ-NH2) had a negative-log EC50 (pEC50) in experiment [1] of 7.50. Also, the IC50 in experiment [2] (setting [3]) is 2.45 nM.

In experiment [1], `CC[C@H](C)[C@H](NC(=O)[C@@H]1CCCN1C(=O)[C@@H](NC(=O)[C@@H](N)CC1CCCCC1)C(C)C)C(=O)N[C@@H](Cc1ccccc1)C(=O)N[C@H](C(=O)N[C@@H](Cc1ccc(O)cc1)C(=O)NCC(=O)N[C@@H](CCC(=O)O)C(=O)N[C@@H](CC(C)C)C(=O)N[C@@H](CCC(N)=O)C(=O)N[C@H](CCCNC(=N)N)C(=O)N[C@@H](CC(C)C)C(=O)N[C@@H](CCC(N)=O)C(=O)O)[C@@H](C)O` [[Cha^1, D-Arg^12, Leu^13]pMOT(1-14)] (H-[Cha]VPIFTYGELQ[dR]LQ-OH) showed a pEC50 of 7.60. In addition, the IC50 in experiment [2] (setting [3]) is 1.78 nM.
